The target of test [1] is Luciferin 4-monooxygenase (Photinus pyralis, UniProt P08659). Briefly: inhibition of purified Photinus pyralis luciferase – biochemical, luminescence, dose response (AID 1891).
Test [2] can be described thus: Luminescence Cell-Based Dose Confirmation HTS to Identify Inhibitors of Platelet Dense Granule Release. [Related pubchem assays: 1663 (Primary HTS), 1678 (Summary of Project)]. In kind it is functional.
A further test concerns the target Paired box protein Pax-8 (Homo sapiens, UniProt Q06710). Briefly: PAX8 transcriptional activity inhibition in RMG-I – RMG-I cells, luciferase, cherry-pick, dose response (AID 687027).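 Further: luciferase reporter driven by Pax8 target thyroperoxidase promoter measured by SteadyGlo luminescence.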 In kind it is functional, cell-based.
The nature of test [3]: NIH-3T3 fibroblast cytotoxicity, dose response, cytotoxicity control, cell-based, fluorescence, Alamar Blue, secondary assay (AID 2327).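 Further: NIH-3T3 mouse fibroblasts cultured with fluconazole at 8 µg/mL.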 It counts as functional. (Resazurin is reduced to fluorescent resorufin, in cell work by metabolically active cells.)
Test [4] can be described thus: fluconazole-exposed Candida albicans growth modulators – fluorescence, retest, confirmation (AID 2467). In kind it is functional, cell-based.
Test [5] in a line: Trypanosoma cruzi growth suppression in host cells – NIH3T3 host cells, beta-gal luminescence, confirmation (AID 2044).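 Further: intracellular parasites grown in NIH/3T3 mouse fibroblasts as host cells; luminescent beta-galactosidase reporter signal from transgenic T. cruzi replicating inside host cells; inhibitors lower the luminescence signal.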 In kind it is functional, cell-based.
The nature of test [6]: NIH3T3 cell viability loss – ATP luminescence, mouse fibroblasts, counter-screen, dose response (AID 2010).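 Further: cells exposed to compound for about 90 hours before reading.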 It counts as functional, cell-based.
Test [7] is described as follows: microbe, parasite or virus in culture. As to conditions: Mycobacterium tuberculosis. It counts as functional.
Another test can be described thus: cells. It counts as functional.
In test [8] the target is T1, Replicative DNA helicase DnaB (Mycobacterium tuberculosis, UniProt P9WMR3).
T1 sequence (P9WMR3 whole entry): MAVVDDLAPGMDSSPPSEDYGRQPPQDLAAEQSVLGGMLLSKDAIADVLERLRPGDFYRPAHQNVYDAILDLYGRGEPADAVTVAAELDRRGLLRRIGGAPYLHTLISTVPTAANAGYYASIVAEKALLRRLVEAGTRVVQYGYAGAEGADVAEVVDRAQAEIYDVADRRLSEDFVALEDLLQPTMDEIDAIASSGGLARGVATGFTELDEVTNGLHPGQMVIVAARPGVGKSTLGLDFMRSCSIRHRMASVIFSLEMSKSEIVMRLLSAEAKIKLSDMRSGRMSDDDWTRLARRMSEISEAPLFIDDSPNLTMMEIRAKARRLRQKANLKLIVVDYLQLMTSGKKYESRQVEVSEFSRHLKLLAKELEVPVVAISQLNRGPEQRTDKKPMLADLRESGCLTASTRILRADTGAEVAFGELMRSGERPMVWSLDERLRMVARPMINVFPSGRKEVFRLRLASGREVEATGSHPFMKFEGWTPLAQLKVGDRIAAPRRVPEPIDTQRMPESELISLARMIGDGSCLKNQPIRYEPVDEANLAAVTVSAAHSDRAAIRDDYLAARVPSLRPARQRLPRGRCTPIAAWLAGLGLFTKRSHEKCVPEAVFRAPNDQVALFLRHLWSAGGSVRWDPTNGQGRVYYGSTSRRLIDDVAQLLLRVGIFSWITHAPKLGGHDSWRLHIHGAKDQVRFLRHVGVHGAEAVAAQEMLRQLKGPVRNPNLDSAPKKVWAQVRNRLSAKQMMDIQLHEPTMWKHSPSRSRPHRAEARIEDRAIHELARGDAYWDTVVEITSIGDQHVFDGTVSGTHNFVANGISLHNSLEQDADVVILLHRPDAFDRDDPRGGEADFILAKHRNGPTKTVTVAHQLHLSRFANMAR
Briefly: DnaB intein splicing inhibitors, dose response, biochemical, cell-free fluorescence (AID 449749). It counts as functional.

For a further test, the target named is T2, Protein RecA (Mycobacterium tuberculosis, UniProt P9WHJ3).
T2 sequence (P9WHJ3 whole entry): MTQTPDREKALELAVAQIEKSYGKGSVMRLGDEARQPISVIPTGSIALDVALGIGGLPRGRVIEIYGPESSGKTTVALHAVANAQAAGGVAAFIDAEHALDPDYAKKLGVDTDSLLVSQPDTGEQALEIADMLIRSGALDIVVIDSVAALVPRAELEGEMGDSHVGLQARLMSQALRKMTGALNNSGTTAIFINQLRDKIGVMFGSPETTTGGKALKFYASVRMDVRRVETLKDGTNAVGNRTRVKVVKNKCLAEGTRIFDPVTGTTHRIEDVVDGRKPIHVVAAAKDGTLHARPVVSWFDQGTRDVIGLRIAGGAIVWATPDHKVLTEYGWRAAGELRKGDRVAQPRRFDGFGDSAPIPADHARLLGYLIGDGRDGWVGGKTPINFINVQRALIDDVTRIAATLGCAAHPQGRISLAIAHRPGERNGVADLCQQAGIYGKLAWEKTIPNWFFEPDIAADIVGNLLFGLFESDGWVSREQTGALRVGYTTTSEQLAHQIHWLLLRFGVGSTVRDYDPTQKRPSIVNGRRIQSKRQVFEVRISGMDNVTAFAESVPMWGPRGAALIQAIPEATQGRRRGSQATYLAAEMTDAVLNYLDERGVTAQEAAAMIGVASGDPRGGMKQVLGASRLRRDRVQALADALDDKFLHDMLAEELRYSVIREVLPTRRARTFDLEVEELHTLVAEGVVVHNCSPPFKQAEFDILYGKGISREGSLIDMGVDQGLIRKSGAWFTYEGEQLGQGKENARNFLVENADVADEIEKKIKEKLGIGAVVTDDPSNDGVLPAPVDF
Briefly: Fluorescence Cell-Free Homogeneous Dose Retest to Identify Inhibitors of RecA-Intein Splicing Activity. [Related pubchem assays (depositor defined):AID2097, AID2223, AID489010, AID492950]. In kind it is functional.

Test [9] is described as follows: viability of uninfected HEp-2 cells – cell-based, HTS, cytotoxicity control for RSV inhibitor project, dose response (AID 2410). The conditions noted are these: human respiratory syncytial virus. In kind it is functional.
The nature of test [10]: Luminescence Cell-Based Dose Retest to Confirm Inhibitors of Cancer Stem Cells. [Related pubchem assays (depositor defined):AID2717, AID2721]. As to conditions: Homo sapiens. In kind it is functional.
Test [11] has as its system Streptococcus sp. 'group A'. Kind of test: Streptococcus pyogenes SK(-)GAS viability under kanamycin – luminescence, BacTiterGlo, confirmation, counter-screen for streptokinase expression inhibitor project, dose response (AID 1900). It counts as functional, organism-based. In general terms: The purpose of a counterscreen is to sort out artefacts and off-target activity.

The next test deals with T3, Streptokinase A (Streptococcus pyogenes serotype M1, UniProt P10520).
T3 sequence (P10520 whole entry): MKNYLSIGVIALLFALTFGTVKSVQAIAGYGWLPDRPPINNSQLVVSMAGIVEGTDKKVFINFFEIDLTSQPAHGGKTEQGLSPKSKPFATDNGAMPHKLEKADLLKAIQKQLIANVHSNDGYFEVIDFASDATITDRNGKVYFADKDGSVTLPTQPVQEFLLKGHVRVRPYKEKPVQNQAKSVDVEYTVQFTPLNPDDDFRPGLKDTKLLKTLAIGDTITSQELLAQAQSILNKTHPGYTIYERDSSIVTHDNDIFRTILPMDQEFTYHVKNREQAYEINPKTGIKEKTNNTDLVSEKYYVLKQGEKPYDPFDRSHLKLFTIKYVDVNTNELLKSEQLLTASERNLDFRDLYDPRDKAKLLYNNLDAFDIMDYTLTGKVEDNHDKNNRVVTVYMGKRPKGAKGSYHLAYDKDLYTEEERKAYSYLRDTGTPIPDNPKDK
Briefly: viability-normalized secreted streptokinase activity reduction – plasminogen activation absorbance, OD405, dose response (AID 1914).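 Further: secreted streptokinase activity via plasminogen activation per viability signal from cell pellet.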 It counts as functional, Streptococcus pyogenes M1 GAS.

The subject of a further test is Streptococcus. Briefly: GAS UMAA2166 growth inhibition – luminescence, BacTiterGlo, counter-screen for streptokinase expression inhibitor project, dose response (AID 1915).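 Further: potency for reduction of bacterial viability or growth.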 It counts as functional, organism-based.
The next test addresses Cytochrome P450 2C19 (Homo sapiens, UniProt P33261). Kind of test: Cytochrome panel assay with activity outcomes. Panel member name: p450-cyp2c19 Compounds with AC50 equal or less than 10 uM are considered active. It counts as functional. As to conditions: read-out: AC50.
The next test deals with Cytochrome P450 2C9 (Homo sapiens, UniProt P11712).
Cytochrome P450 2C9, sequence (P11712 whole entry): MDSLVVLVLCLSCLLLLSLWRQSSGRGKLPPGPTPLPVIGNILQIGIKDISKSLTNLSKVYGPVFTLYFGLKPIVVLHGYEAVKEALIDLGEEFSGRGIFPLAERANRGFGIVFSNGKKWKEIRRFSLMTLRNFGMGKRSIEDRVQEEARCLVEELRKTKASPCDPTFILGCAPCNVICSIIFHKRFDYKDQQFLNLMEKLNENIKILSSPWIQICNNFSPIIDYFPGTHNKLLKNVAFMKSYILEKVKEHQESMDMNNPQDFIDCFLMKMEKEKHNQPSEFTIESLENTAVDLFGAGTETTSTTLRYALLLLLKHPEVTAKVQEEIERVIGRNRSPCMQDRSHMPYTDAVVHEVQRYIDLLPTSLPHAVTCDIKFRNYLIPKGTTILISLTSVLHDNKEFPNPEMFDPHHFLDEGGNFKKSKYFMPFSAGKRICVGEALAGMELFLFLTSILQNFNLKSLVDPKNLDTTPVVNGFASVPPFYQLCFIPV

The source made the active and inactive calls. Where only a bound is given, the exact number is not on record here.

Luciferin 4-monooxygenase, sequence (P08659 whole entry): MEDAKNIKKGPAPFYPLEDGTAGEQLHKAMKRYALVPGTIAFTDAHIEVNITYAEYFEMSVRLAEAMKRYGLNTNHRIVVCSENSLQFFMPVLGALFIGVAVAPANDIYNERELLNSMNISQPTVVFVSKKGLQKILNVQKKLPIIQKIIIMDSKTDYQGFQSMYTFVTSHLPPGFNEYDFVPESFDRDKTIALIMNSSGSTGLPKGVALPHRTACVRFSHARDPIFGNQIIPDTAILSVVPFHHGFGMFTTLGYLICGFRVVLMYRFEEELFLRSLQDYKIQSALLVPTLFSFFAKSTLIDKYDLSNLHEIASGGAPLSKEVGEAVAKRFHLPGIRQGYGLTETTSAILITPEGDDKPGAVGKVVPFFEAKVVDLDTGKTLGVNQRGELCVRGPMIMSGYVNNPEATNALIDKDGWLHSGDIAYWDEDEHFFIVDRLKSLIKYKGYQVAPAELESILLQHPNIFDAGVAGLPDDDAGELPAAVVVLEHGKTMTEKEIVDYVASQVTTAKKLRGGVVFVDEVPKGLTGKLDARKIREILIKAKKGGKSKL
Paired box protein Pax-8, sequence (Q06710 whole entry): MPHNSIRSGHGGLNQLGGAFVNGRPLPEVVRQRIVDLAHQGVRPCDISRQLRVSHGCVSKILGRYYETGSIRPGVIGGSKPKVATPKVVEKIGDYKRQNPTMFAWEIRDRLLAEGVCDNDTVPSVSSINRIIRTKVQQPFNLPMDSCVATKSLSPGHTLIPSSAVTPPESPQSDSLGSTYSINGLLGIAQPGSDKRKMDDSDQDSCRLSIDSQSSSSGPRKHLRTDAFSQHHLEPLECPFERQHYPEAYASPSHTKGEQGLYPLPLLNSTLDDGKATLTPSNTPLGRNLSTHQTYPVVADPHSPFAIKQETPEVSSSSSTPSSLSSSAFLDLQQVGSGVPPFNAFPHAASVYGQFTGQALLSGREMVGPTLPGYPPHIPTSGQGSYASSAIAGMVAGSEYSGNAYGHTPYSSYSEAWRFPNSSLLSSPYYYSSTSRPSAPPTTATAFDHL
Cytochrome P450 2C19, sequence (P33261 whole entry): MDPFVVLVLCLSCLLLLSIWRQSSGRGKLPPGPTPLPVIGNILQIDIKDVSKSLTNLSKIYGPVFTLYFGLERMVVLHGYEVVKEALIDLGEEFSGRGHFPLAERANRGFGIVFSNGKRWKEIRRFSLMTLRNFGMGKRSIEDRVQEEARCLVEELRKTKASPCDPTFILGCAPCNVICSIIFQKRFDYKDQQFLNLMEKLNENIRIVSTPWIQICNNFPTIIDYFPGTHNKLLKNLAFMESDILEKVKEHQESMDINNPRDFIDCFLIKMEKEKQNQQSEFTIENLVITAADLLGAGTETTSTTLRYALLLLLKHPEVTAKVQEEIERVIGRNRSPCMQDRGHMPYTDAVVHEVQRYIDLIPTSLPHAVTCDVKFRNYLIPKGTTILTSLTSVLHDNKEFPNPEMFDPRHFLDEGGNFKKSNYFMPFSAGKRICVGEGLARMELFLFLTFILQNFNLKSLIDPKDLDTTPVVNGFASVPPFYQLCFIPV

`Nc1ccc(-c2nc3ccccc3o2)cc1`: the EC50 is 51.5 µM (active) in [1] and > 112 µM (not active) in test [2].
For the compound `C[C@H](CO)N1C[C@H](C)[C@@H](CN(C)Cc2ccc(Cl)c(Cl)c2)OCCCC[C@H](C)Oc2ccc(NC(=O)Nc3ccc(C(F)(F)F)cc3)cc2C1=O`, the AC50 on Paired box protein Pax-8 is 4.17 µM (active).
Regarding `Cc1cccc(N2CCN(c3nc(C)cc(C)c3C#N)CC2C)c1` (configuration not stated), the half-maximal effective concentration (EC50) was 41.3 µM (active) in test [3], > 38 µM (not active) in [4], 3.63 µM (active) in test [5] and > 60 µM (not active) in test [6].
In the case of `Cc1ccc(C2=[N+]([O-])C3(CCCCC/C3=N\O)N(O)C2(C)C)o1` (configuration not stated), the concentration for a half-maximal effect (EC50) in test [1] and in test [2] was > 112 µM (not active) in each case.
On to `Cc1cc(-c2nnc(CCC(=O)NC(C)c3cccc4ccccc34)o2)no1` (configuration not stated), for which the EC50 in test [1] and in test [2] was > 112 µM (not active) each time.
Regarding `Cc1cc(C=C2C(=O)NC(=S)NC2=O)c(C)n1C1CCCC1`, the CC50 in test [7] is > 40 µM (active). Moreover, the concentration for half-maximal inhibition (IC50) in the test “cells” is 10.4 µM (active).
In the case of `CCOC(=O)c1ccc(COC(=O)c2ccc(-c3nnc(-c4ccccc4)o3)cc2)o1`, the EC50 is 28.5 µM (active) in [1] and 8.77 µM (active) in test [2]. The half-maximal inhibitory concentration (IC50) in “cells” is > 50 µM (active).
For the compound `Cc1cc(C(=O)c2ccc(Cl)cc2)c(NC(=O)CCl)s1`, the AC50 in test [8] was 24.4 µM (active). For the same compound, the concentration for a half-maximal effect (EC50) at Protein RecA was 0.481 µM (active).
As to `Cn1c(-c2ccccc2)c(C(=O)CCl)c2ccccc21`, the EC50 is 0.998 µM (active) in test [5], 2.44 µM (active) in test [6] and 3.04 µM (active) at Protein RecA. For the same compound, the AC50 in [8] was 6.94 µM (active).
Consider `O=S(=O)(c1cccc(-c2nnc(SC(F)F)n2-c2ccccc2)c1)N1CCCCC1`, for which the EC50 in test [1] and in test [2] was > 112 µM (not active) throughout.
Consider `Cc1cc(OC(C)C(=O)NCc2ccncc2)c2c3c(c(=O)oc2c1)CCC3` (configuration not stated), for which the EC50 in test [1] and in [2] was > 112 µM (not active) each time.
For `COC(=O)c1oc2ccc(Br)cc2c1-n1cccc1`, the EC50 in test [1] and in test [2] was > 112 µM (not active) throughout.
Turning to `Cc1cccc(C)c1OCC(=O)Nc1cccc(-c2nnc(-c3ccccc3)o2)c1`, the CC50 in test [7] is 34.9 µM (active).
In the case of `O=C(/C=C/c1ccccc1)Nn1c(-c2cccs2)nc2ccccc2c1=O`, the EC50 in [3] was > 160 µM (inactive); in [4], 0.102 µM (active).
Take `Cc1nnc2n(Cc3ccccc3)c(=O)c3c4c(sc3n12)COC(C(C)C)C4` (configuration not stated): the CC50 in test [9] is 31.3 µM (active). The EC50 in [1] and in test [2] was > 112 µM (not active) in each case.
On to `NCCCn1c(C(=O)c2ccc(Cl)cc2)c2ccc([N+](=O)[O-])cc2[n+]1[O-]`, for which, in test [7], the CC50 is 35.4 µM (active).
The same measure, in the same setting: the result for `CC1CCN(C(=S)NC(=O)c2cccs2)CC1` reads > 40 µM (active).
As for `COc1ccc(CCNC(=O)c2cc3c(=O)n4ccccc4nc3n(Cc3ccco3)c2=N)cc1OC`, the EC50 in test [1] was > 112 µM (not active); in [2], 44 µM (active).
Turning to `CCOc1cc(/C=C2/SC(=S)N(Cc3ccccc3)C2=O)ccc1O`, the AC50 in test [10] was 1.42 µM (active); in [8], 38.9 µM (active). For the same compound, the EC50 at Protein RecA was 3.96 µM (active).
`C[C@@H]1CN([C@@H](C)CO)C(=O)c2ccccc2-c2ccccc2CO[C@@H]1CN(C)Cc1ccc2c(c1)OCCN2C`: the AC50 on Paired box protein Pax-8 was 29.5 µM (active).
As for `COC(=O)c1sc(N)c(C(=O)OC)c1COC(=O)CNS(=O)(=O)c1ccc(C)cc1`, the EC50 in test [1] and in test [2] was > 112 µM (not active) in each case.
Regarding `CC(C)=CCOc1ccc([C@@H]2COc3c(ccc4c3C=CC(C)(C)O4)C2)c(O)c1`, the concentration for a half-maximal effect (EC50) in test [11] was 2.28 µM (active); at Streptokinase A it was > 150 µM (not active); in the test on Streptococcus it was 2.25 µM (active). For the same compound, the CC50 in [7] was > 40 µM (active). The AC50 in [10] was 3.44 µM (active).
Turning to `O=C(CCCCCNc1nc(S)nc2ccccc12)N1CCN(c2ccccn2)CC1`, the CC50 in [7] was > 40 µM (active).
`C=CCn1c(NC(=O)c2ccc(Br)o2)c(C(=O)OCC)sc1=S`: the figures for the EC50 in [3] and in test [4] were > 160 µM (inconclusive) and > 38 µM (not active), respectively.
As for `CCOC(=O)c1cc(CC)sc1NC(=O)c1cc(OCC)c(OCC)c(OCC)c1`, the CC50 in [7] was > 40 µM (active). Moreover, the values for the AC50 on Cytochrome P450 2C19 and at Cytochrome P450 2C9 were 25.1 µM (inconclusive) and 20 µM (inconclusive), respectively.
As to `CC1=NN(c2ccccc2)C(=O)/C1=C\c1cn(C)c2ccccc12`, the AC50 in test [8] was 17.7 µM (active). At Protein RecA, the EC50 was 6.5 µM (active).

As usually defined, the EC50 is the concentration needed to bring the measured effect to its halfway point. As a reminder, the AC50 is the concentration at which the activity in the assay is half-maximal. As usually defined, the IC50 is the point on the concentration scale where inhibition reaches its midpoint.

Source of the values: ChEMBL document CHEMBL1201862, “PubChem BioAssay data set” (2004).
